In patent US20080311138A1 (priority 2004, published 2008):
No end group written: not given here.

Experiments:
[1] = system: tetanus toxoid (TT); parameters: species or system mice (C57/BL6); details: mouse, in vivo
[2] = system: TT; parameters: species or system mice (C57/BL6); details: mouse, in vivo
[3] = circulating GLP-1; inactivated by N-terminal cleavage by DPP-IV; cited from earlier work
[4] = system: tetanus toxin; parameters: species or system mice (C57/BL6); details: mouse, in vivo
[5] = system: VIP; details: in man; cited from earlier work

Substance | anti-TT serum IgA response (GMT) [1] | range of anti-TT IgG titer [2] | half life [3] | paralysis after tetanus toxin challenge [4] | survivors after tetanus toxin challenge [4] | VIP agonist activity [5]
GLP-1 (HDRHAGTTSDVSSYGAAKAWVKGRG; listed as Homo sapiens) | 959 | 16,384-131,072 | several minutes | no sign of paralysis | 8/8 | –
VIP 2-28: Gastrointestinal peptide, residues 2-28 of Vasoactive Intestinal Peptide (SDAVFTDNYTRLRKQMAVKKYLNSILN; ends and bridges not checked; UniProt P01282 126-152, looked up, fragment) | – | – | – | – | – | full VIP agonist
